Measured values as given in patent US12195429B2, “Cannabinoid derivatives” (CANOPY GROWTH CORPORATION, priority 2019, dated 2025).

Assays:
human CB1 receptor [1] = target: T1, human CB1 receptor (Homo sapiens, UniProt P21554); assay: CB1 radioligand competitive binding assay ([3H]CP 55,940 displacement); details: for Selectivity CB1: fold difference in binding affinity, CB1 over CB2, 1.00 = about the same affinity for both receptors
T1 construct: host or cells: CHO-K1

human CB2 receptor = target: T2, human CB2 receptor (Homo sapiens, UniProt P34972); assay: CB2 radioligand competitive binding assay ([3H]CP 55,940 displacement); details: for Selectivity CB2: fold difference in binding affinity, CB2 over CB1, 1.00 = about the same affinity for both receptors
T2 construct: host or cells: CHO-K1
T2 sequence (P34972 whole entry): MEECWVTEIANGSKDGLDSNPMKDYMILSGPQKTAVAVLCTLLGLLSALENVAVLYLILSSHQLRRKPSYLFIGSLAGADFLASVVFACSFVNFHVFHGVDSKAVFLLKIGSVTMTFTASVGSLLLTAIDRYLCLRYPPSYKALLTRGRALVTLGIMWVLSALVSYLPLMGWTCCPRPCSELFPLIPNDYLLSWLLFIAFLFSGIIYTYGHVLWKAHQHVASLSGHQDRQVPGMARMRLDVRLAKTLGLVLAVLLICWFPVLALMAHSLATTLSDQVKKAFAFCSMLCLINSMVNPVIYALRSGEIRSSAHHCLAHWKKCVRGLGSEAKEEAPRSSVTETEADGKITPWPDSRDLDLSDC

human CB1 receptor [2] = target: T1, human CB1 receptor; assay: PathHunter β-arrestin functional assay, CB1 receptor, agonist mode; format: cell-based; details: PathHunter CHO-K1 CNR1 β-arrestin cells; normalized to CP55,940
human CB1 receptor [3] = target: T1, human CB1 receptor; assay: PathHunter β-arrestin functional assay, CB1 receptor, antagonist mode; format: cell-based
[4] = read-out: IC50 towards human CB1 receptor, antagonist mode

T1 sequence (P21554 whole entry): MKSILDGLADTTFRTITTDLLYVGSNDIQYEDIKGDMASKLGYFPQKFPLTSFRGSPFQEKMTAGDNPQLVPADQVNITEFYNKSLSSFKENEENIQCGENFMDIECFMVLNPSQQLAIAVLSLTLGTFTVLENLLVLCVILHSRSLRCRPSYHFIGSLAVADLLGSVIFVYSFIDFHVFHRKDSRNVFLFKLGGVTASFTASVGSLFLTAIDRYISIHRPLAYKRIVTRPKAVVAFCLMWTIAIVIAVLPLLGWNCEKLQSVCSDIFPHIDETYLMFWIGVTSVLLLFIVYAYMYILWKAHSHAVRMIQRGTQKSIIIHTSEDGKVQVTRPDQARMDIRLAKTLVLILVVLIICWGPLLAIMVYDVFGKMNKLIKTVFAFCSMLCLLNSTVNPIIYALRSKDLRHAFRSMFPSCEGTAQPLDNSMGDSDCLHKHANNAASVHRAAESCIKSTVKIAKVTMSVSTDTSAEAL

## C=C(C)[C@@H]1CCC(C)=C[C@H]1c1c(O)cc(CCCCC)c(-c2ccnc(C)c2)c1O [Compound 35d, 2-(6-isopropenyl-3-methyl-cyclohex-2-en-1-yl)-4-(2-methyl-4-pyridyl)-5-pentyl-benzene-1,3-diol]
Human CB1 receptor [1]
  IC50: 1 to 4.99 µM
Human CB2 receptor
  IC50: 1 to 4.99 µM
  Selectivity CB2: 1.60 fold

## C=C(C)[C@@H]1CCC(C)=C[C@H]1c1c(O)cc(CCCCC)c(-c2cc3ccccc3s2)c1O [Compound 34d, 4-(benzothiophen-2-yl)-2-[6-isopropenyl-3-methyl-cyclohez-2-en-1-yl]-5-pentyl-benzene-1,3-diol]
Human CB1 receptor [1]
  IC50: 1 to 4.99 µM
Human CB2 receptor
  IC50: < 0.5 µM
  Selectivity CB2: 7.22 fold
Human CB1 receptor [2]
  activity towards the human CB1 receptor, agonist mode: minimal to no activity
Human CB1 receptor [3]; [4]
  IC50: 1 to 3 µM

## C=C(C)[C@@H]1CCC(C)=C[C@H]1c1c(O)cc(CCCCC)c(-c2cn[nH]c2)c1O [Compound 41d, 5′-methyl-4-pentyl-2′-(prop-1-en-2-yl)-3-(1H-pyrazol-4-yl)-1′,2′,3′,4′-tetrahydro-[1,1′-biphenyl]-2,6-diol]
Human CB1 receptor [1]
  IC50: 1 to 4.99 µM
Human CB2 receptor
  IC50: 1 to 4.99 µM
  Selectivity CB2: 1.60 fold

## CCCCCc1cc(O)c(C2C=C(C)CCC2)c(O)c1-c1ccco1 (centres unmarked) [Compound 15c, 3-(furan-2-yl)-5′-methyl-4-pentyl-1′,2′,3′,4′-tetrahydro-[1,1′-biphenyl]-2,6-diol]
Human CB1 receptor [1]
  IC50: 1 to 4.99 µM
Human CB2 receptor
  IC50: 1 to 4.99 µM
Human CB1 receptor [3]; [4]
  IC50: 1 to 3 µM

## CCCCCc1cc(O)c(C2C=C(C)CCC2)c(O)c1-c1cncnc1 (centres unmarked) [Compound 13c, 5′-methyl-4-pentyl-3-(pyrimidin-5-yl)-1′,2′,3′,4′-tetrahydro-[1,1′-biphenyl]-2,6-diol]
Human CB1 receptor [1]
  IC50: 1 to 4.99 µM
Human CB2 receptor
  IC50: 1 to 4.99 µM

## C=C(C)[C@@H]1CCC(C)=C[C@H]1c1c(O)cc(CCCCC)c(-c2cccnc2)c1O [Compound 12d, 5′-methyl-4-pentyl-2′-(prop-1-en-2-yl)-3-(pyridin-3-yl)-1′,2′,3′,4′-tetrahydro-[1,1′-biphenyl]-2,6-diol]
Human CB1 receptor [1]
  IC50: 1 to 4.99 µM
Human CB2 receptor
  IC50: 1 to 4.99 µM
  Selectivity CB2: 1.39 fold

## C=C(C)[C@@H]1CCC(C)=C[C@H]1c1c(O)cc(CCCCC)c(-c2cncnc2)c1O [Compound 13d, 5′-methyl-4-pentyl-2′-(prop-1-en-2-yl)-3-(pyrimidin-5-yl)-1′,2′,3′,4′-tetrahydro-[1,1′-biphenyl]-2,6-diol]
Human CB1 receptor [1]
  IC50: 1 to 4.99 µM
Human CB2 receptor
  IC50: 1 to 4.99 µM
  Selectivity CB2: 2.35 fold

## CCCCCc1cc(OC)c(C2C=C(C)CCC2)c(OC)c1-c1ccccc1 (centres unmarked) [Compound 40c, 2′,6′-dimethoxy-5-methyl-4′-pentyl-1,2,3,4-tetrahydro-1,1′:3′,1″-terphenyl]
Human CB1 receptor [1]
  IC50: > 5 µM
Human CB2 receptor
  IC50: 1 to 4.99 µM
  Selectivity CB2: 1.79 fold

## C=C(C)[C@@H]1CCC(C)=C[C@H]1c1c(O)cc(CCCCC)c(-c2nnn[nH]2)c1O [Compound 3d, 5′-methyl-4-pentyl-2′-(prop-1-en-2-yl)-3-(1H-tetrazol-5-yl)-1′,2′,3′,4′-tetrahydro-[1,1′-biphenyl]-2,6-diol]
Human CB1 receptor [1]
  IC50: 1 to 4.99 µM
  Selectivity CB1: 1.00 fold
Human CB2 receptor
  IC50: 1 to 4.99 µM
  Selectivity CB2: 1.00 fold

## C=C(C)[C@@H]1CCC(C)=C[C@H]1c1c(O)cc(CCCCC)c(-c2ccsc2)c1O [Compound 17d]
Human CB1 receptor [1]
  IC50: 1 to 4.99 µM
Human CB2 receptor
  IC50: < 0.5 µM
  Selectivity CB2: 33.33 fold
Human CB1 receptor [2]
  activity towards the human CB1 receptor, agonist mode: minimal to no activity
Human CB1 receptor [3]
  IC50: 1 to 3 µM

## C=C(C)[C@@H]1CCC(C)=C[C@H]1c1c(O)cc(CCCCC)c(-c2ccco2)c1O [Compound 15d, 3-(furan-2-yl)-5′-methyl-4-pentyl-2′-(prop-1-en-2-yl)-1′,2′,3′,4′-tetrahydro-[1,1′-biphenyl]-2,6-diol]
Human CB1 receptor [1]
  IC50: > 5 µM
Human CB2 receptor
  IC50: 1 to 4.99 µM
  Selectivity CB2: 3.57 fold

## C=C(C)[C@@H]1CCC(C)=C[C@H]1c1c(O)cc(CCCCC)c(-c2cccs2)c1O [Compound 16d]
Human CB1 receptor [1]
  IC50: 1 to 4.99 µM
Human CB2 receptor
  IC50: < 0.5 µM
  Selectivity CB2: 7.50 fold

## CCCCCc1cc(OC)c(C2C=C(C)CCC2)c(OC)c1-c1cccnc1 (centres unmarked) [Compound 39c, 3-(2,6-dimethoxy-5′-methyl-4-pentyl-1′,2′,3′,4′-tetrahydro-[1,1′-biphenyl]-3-yl)pyridine]
Human CB1 receptor [1]
  IC50: > 5 µM
Human CB2 receptor
  IC50: > 5 µM
  Selectivity CB2: 1.47 fold

## CCCCCc1cc(O)c(C2C=C(C)CCC2)c(O)c1-c1nnn[nH]1 (centres unmarked) [Compound 3c, 5′-methyl-4-pentyl-3-(1H-tetrazol-5-yl)-1′,2′,3′,4′-tetrahydro-[1,1′-biphenyl]-2,6-diol]
Human CB1 receptor [1]
  IC50: 1 to 4.99 µM
Human CB2 receptor
  IC50: 1 to 4.99 µM
Human CB1 receptor [3]; [4]
  IC50: 1 to 3 µM

## CCCCCc1cc(O)c(C2C=C(C)CCC2)c(O)c1-c1cccnc1 (centres unmarked) [Compound 12c, 5′-methyl-4-pentyl-3-(pyridin-3-yl)-1′,2′,3′,4′-tetrahydro-[1,1′-biphenyl]-2,6-diol]
Human CB1 receptor [1]
  IC50: > 5 µM
Human CB2 receptor
  IC50: 0.5 to 0.99 µM
  Selectivity CB2: 7.27 fold

## CCCCCc1cc(O)c(C2C=C(C)CCC2)c(O)c1-c1cccs1 (centres unmarked) [Compound 16c, 5′-methyl-4-pentyl-3-(thiophen-2-yl)-1′,2′,3′,4′-tetrahydro-[1,1′-biphenyl]-2,6-diol]
Human CB1 receptor [1]
  IC50: 1 to 4.99 µM
Human CB2 receptor
  IC50: 0.5 to 0.99 µM
  Selectivity CB2: 2.22 fold
Human CB1 receptor [2]
  activity towards the human CB1 receptor, agonist mode: minimal to no activity
Human CB1 receptor [3]; [4]
  IC50: 1 to 3 µM

## CCCCCc1cc(OC)c(C2C=C(C)CCC2)c(OC)c1-c1cccc(N2CCOCC2)c1 (centres unmarked) [Compound 38c, 4-(2′,4′-dimethoxy-5″-methyl-6′-pentyl-1″,2″,3″,4″-tetrahydro-[1,1′:3′,1″-terphenyl]-3-yl)morpholine]
Human CB1 receptor [1]
  IC50: < 0.5 µM
Human CB2 receptor
  IC50: < 0.5 µM
  Selectivity CB2: 19.05 fold

## CCCCCc1cc(O)c(C2C=C(C)CCC2)c(O)c1-c1ccsc1 (centres unmarked) [Compound 17c, 5′-methyl-4-pentyl-3-(thiophen-3-yl)-1′,2′,3′,4′-tetrahydro-[1,1′-biphenyl]-2,6-diol]
Human CB1 receptor [1]
  IC50: 1 to 4.99 µM
Human CB2 receptor
  IC50: 1 to 4.99 µM
Human CB1 receptor [3]; [4]
  IC50: 1 to 3 µM

## C=C(C)[C@@H]1CCC(C)=C[C@H]1c1c(O)cc(CCCCC)c(-c2ccncc2)c1O [Compound 14d, 5′-methyl-4-pentyl-2′-(prop-1-en-2-yl)-3-(pyridin-4-yl)-1′,2′,3′,4′-tetrahydro-[1,1′-biphenyl]-2,6-diol]
Human CB1 receptor [1]
  IC50: 1 to 4.99 µM
  Selectivity CB1: 1.00 fold
Human CB2 receptor
  IC50: 1 to 4.99 µM
  Selectivity CB2: 1.00 fold

## C=C(C)[C@@H]1CCC(C)=C[C@H]1c1c(O)cc(CCCCC)c(-c2c(C)noc2C)c1O [Compound 36d, 3-(3,5-dimethylisoxazol-4-yl)-5′-methyl-4-pentyl-2′-(prop-1-en-2-yl)-1′,2′,3′,4′-tetrahydro-[1,1′-biphenyl]-2,6-diol]
Human CB1 receptor [1]
  IC50: 1 to 4.99 µM
  Selectivity CB1: 2.22 fold
Human CB2 receptor
  IC50: 1 to 4.99 µM

## C=C(C)[C@@H]1CCC(C)=C[C@H]1c1c(O)cc(CCCCC)c(-c2ccnn2C)c1O [Compound 33d, 5′-methyl-3-(1-methyl-1H-pyrazol-5-yl)-4-pentyl-2′-(prop-1-en-2-yl)-1′,2′,3′,4′-tetrahydro-[1,1′-biphenyl]-2,6-diol]
Human CB1 receptor [1]
  IC50: 1 to 4.99 µM
  Selectivity CB1: 1.00 fold
Human CB2 receptor
  IC50: 1 to 4.99 µM
  Selectivity CB2: 1.00 fold
